Measurements from patent US10961278B2, “Vancomycin derivative, preparation method, pharmaceutical composition and use thereof” (SHANGHAI INSTITUTE OF MATERIA MEDICA, CHINESE ACADEMY OF …, priority 2016, dated 2021).
Converted amounts (≈) assume the structure as drawn. Read-outs that look alike come from different tables or passages of the source.

Key:
[1] = system: vancomycin-sensitive Staphylococcus aureus Newman strain; experiment: In vitro antibacterial activity assay (MIC, CLSI dilution method); assay type: cell-based; conditions: 16 h, S. aureus Newman, 37° C.; for MIC: Staphylococcus aureus
[2] = system: vancomycin-middle resistant Staphylococcus aureus Mu50 strain; experiment: as above; assay type: cell-based; conditions: 16 h; for MIC: Staphylococcus aureus, read-out: MIC Mu50

Structure (SMILES)	MIC ([1]; NEWMAN) [µg/mL]	MIC ([2]; S. aureus Mu50, 37° C.) [µg/mL]	also measured
CCCCCCCCCCNCCNC1(C)C[C@H](O[C@H]2C(Oc3c4cc5cc3Oc3ccc(cc3Cl)[C@@H](O)[C@@H](NC(=O)[C@@H](CC(C)C)NC)C(=O)N[C@@H](CC(N)=O)C(=O)N[C@H]5C(=O)N[C@H]3C(=O)N[C@H](C(=O)N[C@H](C(=O)O)c5cc(O)c(CNCCOC6OC(CO)[C@@H](O)C(O)C6O)c(O)c5-c5cc3ccc5O)[C@H](O)c3ccc(c(Cl)c3)O4)O[C@H](CO)C(O)C2O)OC(C)[C@H]1O (some centres unmarked) [Van001]	1 (≈ 0.535 µM)	2 (≈ 1.07 µM)	
CCCCCCCCCCNCCNC1(C)C[C@H](O[C@H]2C(Oc3c4cc5cc3Oc3ccc(cc3Cl)[C@@H](O)[C@@H](NC(=O)[C@@H](CC(C)C)NC)C(=O)N[C@@H](CC(N)=O)C(=O)N[C@H]5C(=O)N[C@H]3C(=O)N[C@H](C(=O)N[C@H](C(=O)O)c5cc(O)c(CNCCO[C@@H]6OC(CO)[C@H](O)C(O)C6O)c(O)c5-c5cc3ccc5O)[C@H](O)c3ccc(c(Cl)c3)O4)O[C@H](CO)C(O)C2O)OC(C)[C@H]1O (some centres unmarked) [Van002]	0.5 (≈ 0.268 µM)	2 (≈ 1.07 µM)	
CCCCCCCCCCNCCNC1(C)C[C@H](O[C@H]2C(Oc3c4cc5cc3Oc3ccc(cc3Cl)[C@@H](O)[C@@H](NC(=O)[C@@H](CC(C)C)NC)C(=O)N[C@@H](CC(N)=O)C(=O)N[C@H]5C(=O)N[C@H]3C(=O)N[C@H](C(=O)N[C@H](C(=O)O)c5cc(O)c(CNCCO[C@@H]6OC(CO)[C@@H](O)C(O)C6NC(C)=O)c(O)c5-c5cc3ccc5O)[C@H](O)c3ccc(c(Cl)c3)O4)O[C@H](CO)C(O)C2O)OC(C)[C@H]1O (some centres unmarked) [Van003]	4 (≈ 2.1 µM)	16 (≈ 8.38 µM)	
CCCCCCCCCCNCCNC1(C)C[C@H](O[C@H]2C(Oc3c4cc5cc3Oc3ccc(cc3Cl)[C@@H](O)[C@@H](NC(=O)[C@@H](CC(C)C)NC)C(=O)N[C@@H](CC(N)=O)C(=O)N[C@H]5C(=O)N[C@H]3C(=O)N[C@H](C(=O)N[C@H](C(=O)O)c5cc(O)c(CNCCO[C@@H]6OC(CO)[C@@H](O)C(O)C6O)c(O)c5-c5cc3ccc5O)[C@H](O)c3ccc(c(Cl)c3)O4)O[C@H](CO)C(O)C2O)OC(C)[C@H]1O (some centres unmarked) [Van004]	1 (≈ 0.535 µM)	4 (≈ 2.14 µM)	
CCCCCCCCCCNCCNC1(C)C[C@H](O[C@@H]2C(O)C(O)[C@@H](CO)O[C@H]2Oc2c3cc4cc2Oc2ccc(cc2Cl)[C@@H](O)[C@@H](NC(=O)[C@@H](CC(C)C)NC)C(=O)N[C@@H](CC(N)=O)C(=O)N[C@H]4C(=O)N[C@@H]2C(=O)N[C@H](C(=O)N[C@H](C(=O)O)c4cc(O)c(CNCCO)c(O)c4-c4cc2ccc4O)[C@H](O)c2ccc(c(Cl)c2)O3)O[C@@H](C)[C@H]1O (some centres unmarked) [Van005]	1 (≈ 0.586 µM)	4 (≈ 2.35 µM)	
CCCCCCCCCCNCCNC1(C)C[C@H](O[C@@H]2C(O)C(O)[C@@H](CO)O[C@H]2Oc2c3cc4cc2Oc2ccc(cc2Cl)[C@@H](O)[C@@H](NC(=O)[C@@H](CC(C)C)NC)C(=O)N[C@@H](CC(N)=O)C(=O)N[C@H]4C(=O)N[C@@H]2C(=O)N[C@H](C(=O)N[C@H](C(=O)O)c4cc(O)c(CNC5C(O)OC(CO)[C@@H](O)[C@@H]5O)c(O)c4-c4cc2ccc4O)[C@H](O)c2ccc(c(Cl)c2)O3)O[C@@H](C)[C@H]1O (some centres unmarked) [Van006]	8 (≈ 4.39 µM)		MIC Mu50 ([2]; S. aureus Mu50, 37° C.): 32 µg/mL (≈ 17.5 µM)
CCCCCCCCCCNCCNC1(C)C[C@H](O[C@@H]2C(O)C(O)[C@@H](CO)O[C@H]2Oc2c3cc4cc2Oc2ccc(cc2Cl)[C@@H](O)[C@@H](NC(=O)[C@@H](CC(C)C)NC)C(=O)N[C@@H](CC(N)=O)C(=O)N[C@H]4C(=O)N[C@@H]2C(=O)N[C@H](C(=O)N[C@H](C(=O)O)c4cc(O)c(CNC5C(O)OC(CO)[C@@H](O)[C@@H]5O)c(O)c4-c4cc2ccc4O)[C@H](O)c2ccc(c(Cl)c2)O3)O[C@@H](C)[C@H]1O (some centres unmarked) [Van007]			MIC Newman [1]: 4 µg/mL (≈ 2.19 µM); MIC Mu50 ([2]; S. aureus Mu50, 37° C.): 8 µg/mL (≈ 4.39 µM)
CCCCCCCCCCNCCNC1(C)C[C@H](O[C@@H]2C(O)C(O)[C@@H](CO)O[C@H]2Oc2c3cc4cc2Oc2ccc(cc2Cl)[C@@H](O)[C@@H](NC(=O)[C@@H](CC(C)C)NC)C(=O)N[C@@H](CC(N)=O)C(=O)N[C@H]4C(=O)N[C@@H]2C(=O)N[C@H](C(=O)N[C@H](C(=O)O)c4cc(O)c(CNC5C(O)OC(CO)[C@H](O)[C@@H]5O)c(O)c4-c4cc2ccc4O)[C@H](O)c2ccc(c(Cl)c2)O3)O[C@@H](C)[C@H]1O (some centres unmarked) [Van008]	≤ 0.0625	0.25 (≈ 0.137 µM)	
CCCCCCCCCCNCCNC1(C)C[C@H](O[C@H]2C(Oc3c4cc5cc3Oc3ccc(cc3Cl)[C@@H](O)[C@@H](NC(=O)[C@@H](CC(C)C)NC)C(=O)N[C@@H](CC(N)=O)C(=O)N[C@H]5C(=O)N[C@H]3C(=O)N[C@H](C(=O)N[C@H](C(=O)O)c5cc(O)c(CNCCCNC(=O)[C@H](O)[C@@H](O)[C@H](O)[C@H](O)CO)c(O)c5-c5cc3ccc5O)[C@H](O)c3ccc(c(Cl)c3)O4)O[C@H](CO)C(O)C2O)OC(C)[C@H]1O (some centres unmarked) [Van009]	0.5 (≈ 0.264 µM)	1 (≈ 0.527 µM)	
CCCCCCCCCCNCCNC1(C)C[C@H](O[C@H]2C(Oc3c4cc5cc3Oc3ccc(cc3Cl)[C@@H](O)[C@@H](NC(=O)[C@@H](CC(C)C)NC)C(=O)N[C@@H](CC(N)=O)C(=O)N[C@H]5C(=O)N[C@H]3C(=O)N[C@H](C(=O)N[C@H](C(=O)O)c5cc(O)c(CNCCCNC(=O)[C@H](O)[C@@H](O)[C@H](O[C@@H]6OC(CO)[C@H](O)C(O)C6O)[C@H](O)CO)c(O)c5-c5cc3ccc5O)[C@H](O)c3ccc(c(Cl)c3)O4)O[C@H](CO)C(O)C2O)OC(C)[C@H]1O (some centres unmarked) [Van010]	0.25 (≈ 0.121 µM)	1 (≈ 0.486 µM)	
CN[C@H](CC(C)C)C(=O)N[C@H]1C(=O)N[C@@H](CC(N)=O)C(=O)N[C@H]2C(=O)N[C@H]3C(=O)N[C@H](C(=O)N[C@H](C(=O)O)c4cc(O)c(CNCCO[C@@H]5OC(CO)[C@H](O)C(O)C5O)c(O)c4-c4cc3ccc4O)[C@H](O)c3ccc(c(Cl)c3)Oc3cc2cc(c3OC2O[C@H](CO)C(O)C(O)[C@H]2O[C@@H]2CC(C)[C@@H](O)C(C)(NCc3ccc(-c4ccc(Cl)cc4)cc3)C2)Oc2ccc(cc2Cl)[C@H]1O (some centres unmarked) [Van011]	≤ 0.0625	1 (≈ 0.531 µM)	
CN[C@H](CC(C)C)C(=O)N[C@H]1C(=O)N[C@@H](CC(N)=O)C(=O)N[C@H]2C(=O)N[C@H]3C(=O)N[C@H](C(=O)N[C@H](C(=O)O)c4cc(O)c(CNCCO[C@H]5OC(CO)[C@@H](O)C(O)C5O)c(O)c4-c4cc3ccc4O)[C@H](O)c3ccc(c(Cl)c3)Oc3cc2cc(c3OC2O[C@H](CO)C(O)C(O)[C@H]2O[C@@H]2CC(C)[C@@H](O)C(C)(NCc3ccc(-c4ccc(Cl)cc4)cc3)C2)Oc2ccc(cc2Cl)[C@H]1O (some centres unmarked) [Van013]			MIC [1]: 2 µg/mL (≈ 1.06 µM); MIC [2]: 4 µg/mL (≈ 2.12 µM)
CN[C@H](CC(C)C)C(=O)N[C@H]1C(=O)N[C@@H](CC(N)=O)C(=O)N[C@H]2C(=O)N[C@H]3C(=O)N[C@H](C(=O)N[C@H](C(=O)O)c4cc(O)c(CNCCCNC(=O)[C@H](O)[C@@H](O)[C@H](O)[C@H](O)CO)c(O)c4-c4cc3ccc4O)[C@H](O)c3ccc(c(Cl)c3)Oc3cc2cc(c3OC2O[C@H](CO)C(O)C(O)[C@H]2O[C@@H]2CC(C)[C@@H](O)C(C)(NCc3ccc(-c4ccc(Cl)cc4)cc3)C2)Oc2ccc(cc2Cl)[C@H]1O (some centres unmarked) [Van014]			MIC [1]: 0.25 µg/mL (≈ 0.131 µM); MIC [2]: 0.125 µg/mL (≈ 0.0654 µM)
CN[C@H](CC(C)C)C(=O)N[C@H]1C(=O)N[C@@H](CC(N)=O)C(=O)N[C@H]2C(=O)N[C@@H]3C(=O)N[C@H](C(=O)N[C@H](C(=O)O)c4cc(O)c(CNCCCNC(=O)[C@H](O)[C@@H](O)[C@H](O[C@@H]5OC(CO)[C@H](O)C(O)[C@@H]5O)[C@H](O)CO)c(O)c4-c4cc3ccc4O)[C@H](O)c3ccc(c(Cl)c3)Oc3cc2cc(c3OC2O[C@H](CO)C(O)C(O)[C@H]2O[C@H]2CC(C)(NCc3ccc(-c4ccc(Cl)cc4)cc3)[C@H](O)C(C)O2)Oc2ccc(cc2Cl)[C@H]1O (some centres unmarked) [Van015]			MIC [1]: 0.25 µg/mL (≈ 0.12 µM); MIC [2]: 0.5 µg/mL (≈ 0.241 µM)
CN[C@H](CC(C)C)C(=O)N[C@H]1C(=O)N[C@@H](CC(N)=O)C(=O)N[C@H]2C(=O)N[C@H]3C(=O)N[C@H](C(=O)N[C@H](C(=O)O)c4cc(O)c(CNCCCNC(=O)[C@H](O)[C@@H](O)[C@H](O)[C@H](O)CO)c(O)c4-c4cc3ccc4O)[C@H](O)c3ccc(c(Cl)c3)Oc3cc2cc(c3OC2O[C@H](CO)C(O)C(O)[C@H]2O[C@@H]2CC(C)[C@@H](O)C(C)(NCc3ccc(OCc4cccc(-c5ccccc5)c4C)c(Cl)c3)C2)Oc2ccc(cc2Cl)[C@H]1O (some centres unmarked) [Van017]	0.5 (≈ 0.246 µM)	1 (≈ 0.492 µM)	
CCc1ccc(CNC2(C)C[C@H](O[C@H]3C(Oc4c5cc6cc4Oc4ccc(cc4Cl)[C@@H](O)[C@@H](NC(=O)[C@@H](CC(C)C)NC)C(=O)N[C@@H](CC(N)=O)C(=O)N[C@H]6C(=O)N[C@H]4C(=O)N[C@H](C(=O)N[C@H](C(=O)O)c6cc(O)c(CNCCCNC(=O)[C@H](O)[C@@H](O)[C@H](O)[C@H](O)CO)c(O)c6-c6cc4ccc6O)[C@H](O)c4ccc(c(Cl)c4)O5)O[C@H](CO)C(O)C3O)CC(C)[C@H]2O)cc1 (some centres unmarked) [Van018]	4 (≈ 2.19 µM)	8 (≈ 4.37 µM)	
CCCCCCCCCNC1(C)C[C@H](O[C@H]2C(Oc3c4cc5cc3Oc3ccc(cc3Cl)[C@@H](O)[C@@H](NC(=O)[C@@H](CC(C)C)NC)C(=O)N[C@@H](CC(N)=O)C(=O)N[C@H]5C(=O)N[C@H]3C(=O)N[C@H](C(=O)N[C@H](C(=O)O)c5cc(O)c(CNCCCNC(=O)[C@H](O)[C@@H](O)[C@H](O)[C@H](O)CO)c(O)c5-c5cc3ccc5O)[C@H](O)c3ccc(c(Cl)c3)O4)O[C@H](CO)C(O)C2O)CC(C)[C@H]1O (some centres unmarked) [Van019]	0.5 (≈ 0.272 µM)	2 (≈ 1.09 µM)	
CN[C@H](CC(C)C)C(=O)N[C@H]1C(=O)N[C@@H](CC(N)=O)C(=O)N[C@H]2C(=O)N[C@@H]3C(=O)N[C@H](C(=O)NC(C(=O)NCCCN(C)C)c4cc(O)cc(O)c4-c4cc3ccc4O)[C@H](O)c3ccc(c(Cl)c3)Oc3cc2cc(c3OC2O[C@H](CO)C(O)C(O)[C@H]2O[C@H]2CC(C)(NCc3ccc(-c4ccc(Cl)cc4)cc3)[C@H](O)C(C)O2)Oc2ccc(cc2Cl)[C@H]1O (some centres unmarked) [Van020]			MIC [1]: 1 µg/mL (≈ 0.577 µM); MIC [2]: 1 µg/mL (≈ 0.577 µM)
CN[C@H](CC(C)C)C(=O)N[C@H]1C(=O)N[C@@H](CC(N)=O)C(=O)N[C@H]2C(=O)N[C@H]3C(=O)N[C@H](C(=O)N[C@H](C(=O)NCCCN(C)C)c4cc(O)c(CNCCOC5OC(CO)[C@@H](O)C(O)C5O)c(O)c4-c4cc3ccc4O)[C@H](O)c3ccc(c(Cl)c3)Oc3cc2cc(c3OC2O[C@H](CO)C(O)C(O)[C@H]2O[C@H]2CC(C)(NCc3ccc(-c4ccc(Cl)cc4)cc3)[C@H](O)C(C)O2)Oc2ccc(cc2Cl)[C@H]1O (some centres unmarked) [Van021]	2 (≈ 1.02 µM)	4 (≈ 2.03 µM)	
